Ki and Km data for 4 molecules are collected here from article PMC9554301, “Rapid modeling of experimental molecular kinetics with simple electronic circuits instead of with complex differential equations” (Frontiers in Bioengineering and Biotechnology, 2022).

Data set [1] addresses T1, beta-galactosidase (Escherichia coli, UniProt P00722).
T1 construct: gene lacZ
Description: product-feedback inhibition of ONPG hydrolysis, absorbance at […] nm. Format: biochemical.

For data set [2], the target named is T1, beta-galactosidase. Description: ONPG hydrolysis absorbance assay at […] nm, Lineweaver-Burk. The format is biochemical.
For data set [3], the target named is T1, beta-galactosidase. Description: hydrolysis kinetics (Km), absorbance of 2-nitrophenol at […] nm. The format is biochemical.
Substrate in data set [4]: CCO
Description: ethanol oxidation kinetics (Km), NADH absorbance, Lineweaver-Burk. Format: biochemical, Saccharomyces cerevisiae. The settings on record: NAD+ binds the E-NAD complex (ordered Bi-Bi).

T1 sequence (P00722 2-1024): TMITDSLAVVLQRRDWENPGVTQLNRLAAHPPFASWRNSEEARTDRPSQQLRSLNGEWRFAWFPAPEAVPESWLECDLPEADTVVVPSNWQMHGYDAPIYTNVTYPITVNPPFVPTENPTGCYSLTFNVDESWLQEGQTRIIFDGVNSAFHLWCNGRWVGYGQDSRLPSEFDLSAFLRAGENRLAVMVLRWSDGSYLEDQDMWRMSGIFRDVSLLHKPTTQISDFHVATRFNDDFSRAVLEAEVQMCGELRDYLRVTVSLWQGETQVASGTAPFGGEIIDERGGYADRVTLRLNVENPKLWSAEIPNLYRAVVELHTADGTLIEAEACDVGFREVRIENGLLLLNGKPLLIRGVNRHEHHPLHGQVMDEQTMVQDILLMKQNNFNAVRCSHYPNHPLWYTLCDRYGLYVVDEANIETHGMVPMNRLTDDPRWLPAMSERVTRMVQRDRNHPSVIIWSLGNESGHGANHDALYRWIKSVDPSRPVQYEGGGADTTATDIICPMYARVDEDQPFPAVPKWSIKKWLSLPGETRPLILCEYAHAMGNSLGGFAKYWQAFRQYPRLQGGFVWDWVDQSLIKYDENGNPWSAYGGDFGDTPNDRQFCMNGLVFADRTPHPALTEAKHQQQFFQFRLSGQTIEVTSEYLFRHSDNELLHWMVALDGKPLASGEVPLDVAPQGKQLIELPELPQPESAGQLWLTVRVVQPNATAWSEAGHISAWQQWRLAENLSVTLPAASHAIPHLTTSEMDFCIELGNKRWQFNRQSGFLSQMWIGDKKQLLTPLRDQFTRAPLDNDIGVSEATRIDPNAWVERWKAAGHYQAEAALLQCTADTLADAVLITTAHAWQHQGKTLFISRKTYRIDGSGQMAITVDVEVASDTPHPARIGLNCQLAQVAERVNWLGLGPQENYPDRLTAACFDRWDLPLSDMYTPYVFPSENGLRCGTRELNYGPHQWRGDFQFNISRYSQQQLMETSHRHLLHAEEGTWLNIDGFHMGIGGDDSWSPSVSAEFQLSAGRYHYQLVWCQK

In turn, `OC[C@H]1OC(O)[C@H](O)[C@@H](O)[C@H]1O` (stereo partly shown) [Gal, galactose] came in with a Ki in data set [1] of 13.7 mM. Consider `OC[C@H]1O[C@@H](SCCc2ccccc2)[C@H](O)[C@@H](O)[C@H]1O` [PETG, phenylethyl beta-D-thiogalactopyranoside], for which the affinity in data set [2] corresponds to a Ki of 0.00233 mM. In the case of `O=[N+]([O-])c1ccccc1O[C@@H]1O[C@H](CO)[C@H](O)[C@H](O)[C@H]1O` [ONPG, o-nitrophenyl-β-D-galactopyranoside], the Km in data set [3] came to 167 µM.

B1: alcohol dehydrogenase (Saccharomyces cerevisiae S288C) (protein)
chain: SIPETQKGVIFYESHGKLEYKDIPVPKPKANELLINVKYSGVCHTDLHAWHGDWPLPVKLPLVGGHEGAGVVVGMGENVKGWKIGDYAGIKWLNGSCMACEYCELGNESNCPHADLSGYTHDGSFQQYATADAVQAAHIPQGTDLAQVAPILCAGITVYKALKSANLMAGHWVAISGAAGGLGSLAVQYAKAMGYRVLGIDGGEGKEELFRSIGGEVFIDFTKEKDIVGAVLKATDGGAHGVINVSVSEAAIEASTRYVRANGTTVLVGMPAGAKCCSDVFNQVVKSISIVGSYVGNRADTREALDFFARGLVKSPIKVVGLSTLPEIYEKMEKGQIVGRYVVDTSK
notes: yeast alcohol dehydrogenase (cat# A7011)
As to B1, the Km in data set [4] is 14300 µM.
